Assay results taken from patent US20210315893A1 (Galapagos NV, priority 2017, published 2021).

Tests used:
S1PR2 = biological target: T1, S1PR2 (Homo sapiens, UniProt O95136); experiment: S1PR2 binding assay (competition with radioactively labeled S1P, SpA); conditions: membranes from stable cell line over expressing S1PR2, SpA beads; read-out: S1P2 EC50 (nM), S1PR2 binding EC50
T1 construct: expressed in transfected cells
Description: The following assay can be used for determination of S1PR2 binding. The binding assay measures the potential to compete with radioactively labeled S1P for binding to the receptor.
The assay is performed in a96 well plate where the following reagents are added. First 50 μL compound is added into the assay plate, followed by addition of 100 μL ofa mixture consisting of membrane and Scintillation proximity Assay (SpA) beads [mixture consists […] membranes derived from stable cell line over expressing SPR2, 0.5 mg/well Polyvinyltoluene-Wheat Germ-Agglutinin (PVT-WGA) beads (Perkin Elmer, RPNQOO1)]. All components are diluted in assay buffer containing 20 mM Tris pH 7.5; 10 mM MgCl2; 100 mM NaCl; 0.4% BSA FAF; 1 mM Na3VO4) and incubated for 15 min until addition to the assay plate. Subsequently, 50 ul of radioactively labeled S1P is added to the wells (Sphingosine, D-erythro-[3-3H] 1-phosphate; ARC; ART0778). After an incubation for 2 h at room temperature, plates are centrifuged at 2000 rpm during 20 min. Plates are read on a Topcount reader (Perkin Elmer) immediately after centrifugation (readout time, 1 min/well).

[1] = biological target: T2, human GPCR sphingosine 1-phosphate receptor 2 (Homo sapiens, UniProt O95136); experiment: S1PR2 antagonist Ca2+ flux assay; format: cell-based; conditions: antagonist mode, CHO-S1PR2 cells, S1P at EC80, Ca2+ fluorescence; read-out: S1P2 EC50 (nM), S1P2 antagonist EC50
T2 construct: host or cells: CHO
T2 sequence (O95136 whole entry): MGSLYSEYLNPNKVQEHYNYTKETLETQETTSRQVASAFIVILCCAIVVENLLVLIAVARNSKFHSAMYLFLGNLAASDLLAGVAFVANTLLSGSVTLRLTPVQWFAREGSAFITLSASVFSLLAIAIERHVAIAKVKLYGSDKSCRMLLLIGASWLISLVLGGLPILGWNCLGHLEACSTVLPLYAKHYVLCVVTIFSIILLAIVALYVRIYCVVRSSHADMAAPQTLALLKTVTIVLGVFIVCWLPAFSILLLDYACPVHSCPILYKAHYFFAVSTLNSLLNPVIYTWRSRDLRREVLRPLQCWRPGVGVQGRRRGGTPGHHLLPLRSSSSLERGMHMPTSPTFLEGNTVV
Description: Triggering of S1PR2 by administration of Sphingosine-1-phosphate leads to a transient increase in intracellular Ca^2+. The Ca^2+ flux assays are measuring the release of Ca^2+ intracellularly by use of a Ca^2+ sensitive fluorescent dye. The assay is firstly run in agonist mode (incubation of compounds alone) to ensure that the Ca^2+ released measured is not caused by the test compound having an agonistic effect. Then the assay is continued in antagonist mode (Sphingosine-1-Phosphate added to incubated medium containing the test compounds).
CHO cells stably overexpressing human GPCR sphingosine 1-phosphate receptor 2 (CHO-S1PR2 Perkin Elmer; ES-594-A) are seeded from a frozen stock in 384 wells sterile microplates (50 μL; 7,500 cells/well) and are incubated overnight at 37° C. and 5% CO2. The next day cells are washed twice with starvation medium (F-12 Ham's medium containing 0.1% BSA (Fatty acid free: FAF)) and left in 25 μL starvation medium for 1 h at 37° C., 5% CO2. After this starvation cells are incubated with 25 μL buffer containing the Ca^2+-sensitive fluorescent dye (0.5 mg Fluo8+125 mg Allura Red in 100 mL of 1% DMSO, in HBSS+20 mM Hepes+5 mM probenecid). The cells are incubated for an additional 1 h after which 10 μL compounds, diluted in HBSS buffer with 20 mM Hepes and 0.1% BSA (FAF), are added to the cells and intracellular Ca2+ changes are immediately measured by reading fluorescence during 3 min (FDSS/pCELL reader). The ratio of the maximal fluorescence over the background fluorescence before compound injection is used to determine compound response.
After readout of the agonist activity, the plates are incubated for 15 min at 37° C. and 5% CO2. Then, cells are stimulated with 10 μL Sphingosine-1-Phosphate (S1P) (Avanti Polar lipids-860492P) at its EC80 concentration. Intracellular Ca2+ changes are immediately measured by reading fluorescence during 3 min (FDSS/pCELL reader). The ratio of the maximal fluorescence over the background fluorescence before compound injection is used to determine compound response.
The obtained ratio's for agonist and antagonist readout were normalized versus vehicle and EC 100 of S1P ascontrols for agonist mode and versus vehicle and […]. From these normalized data EC50 of the compounds are derived.

T1 sequence (O95136 whole entry): as above

SMILES | EC50 (S1PR2) [nM] | EC50 [1] [nM]
O=c1c2ccccc2c(Cc2nc3cc(Cl)c(OC(F)(F)F)cc3[nH]2)nn1C1CCCC1 [Compound 24, 4-[[5-chloro-6-(trifluoromethoxy)-1H-benzimidazol-2-yl]methyl]-2-cyclopentyl-phthalazin-1-one] | 8450 | 
O=c1c2ccccc2c(Cc2nc3cc(Cl)c(OC(F)(F)F)cc3[nH]2)nn1CC1CCCCO1 (stereo not drawn) [Compound 35, 4-[[6-chloro-5-(trifluoromethoxy)-1H-benzimidazol-2-yl]methyl]-2-(tetrahydropyran-2-ylmethyl)phthalazin-1-one] | 5410 | 
CC1(Cn2nc(Cc3nc4cc(Cl)c(OC(F)(F)F)cc4[nH]3)c3ccccc3c2=O)COC1 [Compound 36, 4-[[6-chloro-5-(trifluoromethoxy)-1H-benzimidazol-2-yl]methyl]-2-[(3-methyloxetan-3-yl)methyl]phthalazin-1-one] | 100000 | ≥ 19900
CC1(C)OCC(Cn2nc(Cc3nc4cc(Cl)c(OC(F)(F)F)cc4[nH]3)c3ccccc3c2=O)O1 (stereo not drawn) [Compound 38, 4-[[6-chloro-5-(trifluoromethoxy)-1H-benzimidazol-2-yl]methyl]-2-[(2,2-dimethyl-1,3-dioxolan-4-yl)methyl]phthalazin-1-one] | 1210 | 1280
CN1CCCC(Cn2nc(Cc3nc4cc(Cl)c(OC(F)(F)F)cc4[nH]3)c3ccccc3c2=O)C1 (stereo not drawn) [Compound 39, 4-[[6-chloro-5-(trifluoromethoxy)-1H-benzimidazol-2-yl]methyl]-2-[(1-methyl-3-piperidyl)methyl]phthalazin-1-one] | 13400 | ≥ 19900
Cc1cccc2c(=O)n(CC(=O)N3CCOCC3)nc(Cc3nc4cc(OCC(F)F)c(C#N)cc4[nH]3)c12 [Compound 66, 6-(2,2-difluoroethoxy)-2-[[8-methyl-3-(2-morpholino-2-oxo-ethyl)-4-oxo-phthalazin-1-yl]methyl]-3H-benzimidazole-5-carbonitrile] | 57.1 | 18.9
N#Cc1cc2[nH]c(Cc3nn(CC(=O)N4CCC(N5CCOCC5)CC4)c(=O)c4ccccc34)nc2cc1OCC(F)F [Compound 238, 6-(2,2-difluoroethoxy)-2-[[3-[2-(4-morpholino-1-piperidyl)-2-oxo-ethyl]-4-oxo-phthalazin-1-yl]methyl]-3H-benzimidazole-5-carbonitrile] | 5240 | 

The next lines start with the values.

EC50 (S1PR2) [nM] | EC50 [1] [nM] | SMILES
33300 | 1490 | O=c1c2ccccc2c(Cc2nc3cc(Cl)c(OC(F)(F)F)cc3[nH]2)nn1CC1CCC1 [Compound 28, 4-[[6-chloro-5-(trifluoromethoxy)-1H-benzimidazol-2-yl]methyl]-2-(cyclobutylmethyl)phthalazin-1-one]
5190 | 4340 | O=c1c2ccccc2c(Cc2nc3cc(Cl)c(OC(F)(F)F)cc3[nH]2)nn1CC1CCCO1 (stereo not drawn) [Compound 34, 4-[[6-chloro-5-(trifluoromethoxy)-1H-benzimidazol-2-yl]methyl]-2-(THF-2-ylmethyl)phthalazin-1-one]
4570 | 1460 | O=c1c2ccccc2c(Cc2nc3cc(Cl)c(OC(F)(F)F)cc3[nH]2)nn1CC1CCCN1 (stereo not drawn) [Compound 55, 4-[[6-chloro-5-(trifluoromethoxy)-1H-benzimidazol-2-yl]methyl]-2-(pyrrolidin-2-ylmethyl)phthalazin-1-one]
1100 | 890 | O=c1c2ccccc2c(Cc2nc3cc(Cl)c(OC(F)(F)F)cc3[nH]2)nn1CC1CCCNC1 (stereo not drawn) [Compound 58, 4-[[6-chloro-5-(trifluoromethoxy)-1H-benzimidazol-2-yl]methyl]-2-(3-piperidylmethyl)phthalazin-1-one]
1270 | 4160 | O=c1c2ccccc2c(Cc2nc3cc(Cl)c(OC(F)(F)F)cc3[nH]2)nn1CC1CNCCO1 (stereo not drawn) [Compound 63, 4-[[5-chloro-6-(trifluoromethoxy)-1H-benzimidazol-2-yl]methyl]-2-(morpholin-2-ylmethyl)phthalazin-1-one]
